From patent US5648366A, “Substituted pyrrolidin-3-yl-alkyl-piperidines” (Merrell Pharmaceuticals Inc., priority 1995, dated 1997)
Counter-ions that a name gives are not always drawn.

How the values were obtained:
[1] = target: T1, NK1 receptor (Homo sapiens, UniProt P25103); assay: Antagonism of NK1 receptor mediated (SP-induced) phosphatidylinositol turnover in UC11 cells; format: cell-based; settings: UC11 cells, SP; for NK-1 RECEPTOR -SLOPE: Schild analysis; for NK-1 RECEPTOR pA2: Schild analysis of 2-3 experiments, 95% confidence limits on next line
T1 construct: endogenous in cells; host or cells: UC11 cells
T1 sequence (P25103 whole entry): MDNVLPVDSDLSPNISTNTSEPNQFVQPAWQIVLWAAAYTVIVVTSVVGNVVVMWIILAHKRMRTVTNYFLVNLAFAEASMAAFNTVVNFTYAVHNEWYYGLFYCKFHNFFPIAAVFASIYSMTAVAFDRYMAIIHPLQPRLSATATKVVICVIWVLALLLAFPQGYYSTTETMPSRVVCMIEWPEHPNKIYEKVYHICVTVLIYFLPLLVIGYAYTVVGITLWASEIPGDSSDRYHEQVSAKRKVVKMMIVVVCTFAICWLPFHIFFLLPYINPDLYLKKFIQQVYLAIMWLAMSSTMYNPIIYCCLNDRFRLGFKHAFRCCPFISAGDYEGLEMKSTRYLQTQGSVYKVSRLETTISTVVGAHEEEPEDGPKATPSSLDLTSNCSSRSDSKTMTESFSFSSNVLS
Protocol: (§1) ANTAGONISM OF NK1 AND NK2 RECEPTOR MEDIATED PHOSPHATID[…]
(§2) Tachykinin-mediated inositol phosphate accumulation was measured in UC11 or SKLKB82#3 cells in the presence and absence of NK1 or NK2 receptor antagonists, respectively. Tissues were incubated in Krebs-Henseleit buffer at 37° C. with 95% O2 -5% CO2 gassing. Tissues were then incubated with fresh buffer containing 100 μCi of myo-[2-^3 H(N)] inositol at 37° C. for 60 min with gentle gassing. After washing twice in 5 ml room temperature buffer containing 10 mM LiCl, tissues were incubated for 30 min at room temperature with a buffer change at 15 min. Buffer was removed and Krebs-Henseleit buffer (containing 40 μg/ml bacitracin, 4 μg/ml each of leupeptin and chymostatin, 0.1% bovine serum albumin and 10 mM each of thiorphan and LiCl) added. After 15 min, SP was added to UC11 cells or NKA to SKLKB82#3 cells at various concentrations to start the reaction. After incubation for 60 min at room temperature the reaction was terminated by addition of 930 μl chloroform: methanol (1:2 by volume) to each tube, followed by 310 μl chloroform and 310 μl doubly distilled water. Samples were vortexed, centrifuged, and 0.9 ml of the aqueous (top) phase removed and added to 2 ml ddH2 O. The mixture was vortexed and loaded onto a 50% Bio-Rad AG 1-X8 (formate form, 100-200 mesh) exchange column (Bio-Rad Laboratories, Hercules, Calif.). The columns were washed, in order, with: 1) 10 ml doubly distilled water, 2) 5 ml of 5 mM disodium tetraborate/60 mM sodium formate, and 3) 5 ml of 1M ammonium formate/0.1M formic acid. The third elution was collected and 1 ml counted in 7 ml scintillation fluid. A 50 μl aliquot of the organic (bottom) phase was removed, dried in a scintillation vial and counted in 7 ml scintillation fluid.
(§3) The ratio of DPM in the aqueous phase aliquot (total inositol phosphates) to the DPM in the 50 μl organic phase aliquot (total [^3 H]inositol incorporated) was calculated for each sample. Data are expressed as a percent of agonist-induced accumulation of [^3 H]-inositol phosphates over basal levels. The ratios in the presence of test compound and/or standards were compared to the ratios for control samples (i.e. no stimulating agonist). Dose-response graphs were constructed and the abilities of the test compounds to inhibit tachykinin-induced phosphatidyinositol turnover determined with the aid of a computer program. […] Data is expressed as percent stimulation of total inositol phosphate accumulation over basal levels and normalized to the maximum response produced by SP. […] Schild analysis is performed using dose response curves (such as those presented in FIGS. 1a and 1b) to obtain a value indicative of the strength of a competitive antagonist and is expressed as the pA2, which is the negative logarithm of the molar concentration of antagonist which reduces the effect of a dose of agonist to one-half of that expected at the dose of agonist.

[2] = target: T2, NK2 receptor (Bos taurus, UniProt P05363); assay: Antagonism of NK2 receptor mediated (NKA-induced) phosphatidylinositol turnover in SKLKB82#3 cells; format: cell-based; settings: SKLKB82#3 cells, NKA; for NK-2 RECEPTOR -SLOPE: Schild analysis; for NK-2 RECEPTOR pA2: Schild analysis of 2-3 experiments, 95% confidence limits on next line
T2 construct: expressed in transfected cells; host or cells: SKLKB82#3 cells (murine B82 fibroblasts by own knowledge)
T2 sequence (P05363 1-384): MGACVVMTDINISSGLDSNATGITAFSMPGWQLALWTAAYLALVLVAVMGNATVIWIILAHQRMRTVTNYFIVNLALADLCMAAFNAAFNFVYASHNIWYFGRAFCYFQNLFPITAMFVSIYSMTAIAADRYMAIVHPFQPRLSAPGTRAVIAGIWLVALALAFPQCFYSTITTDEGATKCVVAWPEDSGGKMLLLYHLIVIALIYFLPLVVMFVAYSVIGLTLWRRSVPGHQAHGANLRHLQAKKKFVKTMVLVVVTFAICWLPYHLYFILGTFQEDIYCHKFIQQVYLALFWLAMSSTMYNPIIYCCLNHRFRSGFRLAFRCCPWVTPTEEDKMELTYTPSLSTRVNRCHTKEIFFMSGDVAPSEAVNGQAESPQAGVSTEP
Protocol: as §1, §2, §3

[3] = test system: NK1 and NK2 receptors; assay: Antagonism of capsaicin aerosol induced respiratory effects in conscious guinea pigs; format: in vivo, guinea pig; settings: for SRE NUMBER (coughs/gasps): 19 min capsaicin exposure; for SRE NUMBER (coughs/gasps) / DYSPNEA ONSET / MAXIMUM PRESSURE INCREASE: mean and SEM; for DYSPNEA INCIDENCE / DYSPNEA ONSET / MAXIMUM PRESSURE INCREASE: capsaicin aerosol 0.001%; for antagonism of effects of capsaicin aerosol (in words): administered orally; for inhibition of endogenous tachykinins released by capsaicin aerosol (in words): guinea pig, in vivo
Protocol: (§4) ANTAGONISM OF NKA AND CAPSAICIN INDUCED R[…] IN CONSCIOUS GUINEA PIGS
(§5) In vivo experiments were performed using male Duncan Hartley guinea pigs (250-350 g). Changes in conscious breathing patterns were monitored in four animals simultaneously using modified whole body plethysmography consisting of four small plexiglass boxes each connected to a reference box via Validyne DP 45-16 differential pressure transducers. The 4 boxes were equipped with an air supply line (also used for aerosol delivery) and an exhaust air line. Supply and exhaust lines were of the same length and narrow bore and arose from a common supply chamber and vented to a common exhaust chamber. This system was used to ensure that fluctuations in supply air and atmospheric pressure would remain in phase and be eliminated from the net signal by the differential pressure transducers. The analog pressure signals were digitalized via a Data Translation DT2821 A to D board. Data were collected at a rate of 100 samples/second/animal. Each cycle of pressure change was analyzed using the following parameters: rising and falling slope determined between minimum and maximum pressures, the ratio of rising over falling slope, and the magnitude of the change between initial trough pressure and peak cycle pressure. Using these values (and observing the animals) the pressure cycles were characterized into normal breaths, forced exhalations (apparent by abdominal heaving), significant respiratory events (SREs; usually coughs, less often sneezes or gasps which were characterized by transient, extremely large pressure increases which were distinguishable from noise) and movement/noise with a PCAT 286 running a System V UNIX operating system. Dyspnea was defined as a significant, sustained increase in plethysmograph pressure which was associated with an observable shift to labored breathing in the animal.
(§6) During the course of a typical experiment in which airway responsiveness to various bronchoconstricting agents was examined, aerosols were delivered for 19 min (0.33 ml/min) using a DeVilbiss Ultraneb 99 ultrasonic nebulizer and animals monitored during this time. Prior to nebulization, 1 min of resting breathing was collected to establish a baseline pressure. […] The vehicle for nebulization of all bronchoconstrictive agents was phosphate buffered saline (pH 7.4) which elicited no r[…] itself. Putative tachykinin antagonists were administered either (i.v.) 20 min prior to onset of aerosol exposure or orally 1 hour prior to onset (to guinea pigs after an overnight fast).
Capsaicin aerosol is known to promote release of the tachykinins SP and NKA from sensory nerves in the airways of guinea pigs which may then act upon NK1 and NK2 receptors, respectively to elicit r[…]. The ability of the compounds of Example 3A; and Example 20A to attenuate capsaicin-induced r[…], shown in Table 7a, is inferred from their ability to reduce incidence of dyspnea, prolong the onset of the response and reduce the number of coughs/gasps which occur during aerosol exposure.

[4] = test system: NK2 receptor; assay: Antagonism of NKA aerosol induced respiratory effects in conscious guinea pigs; format: in vivo, guinea pig; settings: 20 min prior to NKA aerosol (0.05%); for DYSPNEA ONSET: mean and SEM
Protocol: as §4, §5, §6
Table 6 illustrates the effects of the compounds of Example 3; Example 20A; and Example 5A on r[…] induced by NKA aerosol. […] These effects were dose dependent i.e. the higher the dose of compound, the greater attenuation of NKA-mediated effects.

[5] = 25 mg/kg oral gavage 1 hr prior
[6] = 50 mg/kg oral gavage 1 hr prior
[7] = 100 mg/kg oral gavage 1 hr prior

## COc1cc(C(=O)N2CCC(CCN3CCC(C(N)=O)(c4ccccc4)CC3)(c3ccc(Cl)c(Cl)c3)C2)cc(OC)c1OC (racemic) [Example 3A, 1-[2-[3-(3,4-dichloro-phenyl)-1-(3,4,5-trimethoxy-benzoy1)-pyrrolidin-3-yl]-ethyl]-4-phenyl-piperidine-4-carboxylic acid amide hydrochloride]
[1]
  NK-1 RECEPTOR -SLOPE: 0.90
  NK-1 RECEPTOR pA2: 7.91
[2]
  NK-2 RECEPTOR -SLOPE: 0.73
  NK-2 RECEPTOR pA2: 8.75
[3]; 10 mg/kg intravenous
  SRE NUMBER (coughs/gasps): 8.50 ± 1.9
  DYSPNEA INCIDENCE: 89%
  DYSPNEA ONSET: 480 ± 80 s
  MAXIMUM PRESSURE INCREASE: 0.83 ± 0.18 mmH2 O
[3]; [5]
  SRE NUMBER (coughs/gasps): 4.6 ± 1.0
  DYSPNEA INCIDENCE: 80%
  DYSPNEA ONSET: 424 ± 120 s
  MAXIMUM PRESSURE INCREASE: 0.7 ± 0.2 mmH2 O
[3]; [6]
  SRE NUMBER (coughs/gasps): 2.8 ± 0.8
  DYSPNEA INCIDENCE: 70%
  DYSPNEA ONSET: 434 ± 152 s
  MAXIMUM PRESSURE INCREASE: 0.4 ± 0.1 mmH2 O
[3]; [7]
  SRE NUMBER (coughs/gasps): 2.1 ± 0.5
  DYSPNEA INCIDENCE: 50%
  DYSPNEA ONSET: 360 ± 120 s
  MAXIMUM PRESSURE INCREASE: 0.4 ± 0.1 mmH2 O
[3]
  antagonism of effects of capsaicin aerosol (in words): antagonize the effects of capsaicin aerosol when administered orally
  inhibition of endogenous tachykinins released by capsaicin aerosol (in words): inhibit the endogenous tachykinins released by capsaicin aerosol

## COc1cc(C(=O)N2CCC(CCN3CCC(C(N)=O)(c4ccccc4)CC3)(c3ccc(Cl)c(Cl)c3)C2)cc(OC)c1OC (single isomer, unassigned; (+)) [Example 20, (+)-1-[2-[3-(3,4-dichloro-phenyl)-1-(3,4,5-trimethoxy-benzoyl)-pyrrolidin-3-yl]-ethyl]-4-phenyl-piperidine-4-carboxylic acid amide]
[1]
  NK-1 RECEPTOR -SLOPE: 1.03
[2]
  NK-2 RECEPTOR -SLOPE: 1.00

## COc1cccc(OC)c1C(=O)N1CCC(CCN2CCC(C(N)=O)(c3ccccc3)CC2)(c2ccc(Cl)c(Cl)c2)C1 (stereo not drawn) [Example 5A, 1-[2-[3-(3,4-dichloro-phenyl)-1-(2,6-dimethoxy-benzoyl)-pyrrolidin-3-yl]-ethyl]-4-phenyl-piperidine-4-carboxylic acid amide hydrochloride]
[1]
  NK-1 RECEPTOR -SLOPE: 1.17
  NK-1 RECEPTOR pA2: 7.32
[2]
  NK-2 RECEPTOR -SLOPE: 1.11
  NK-2 RECEPTOR pA2: 7.35
[4]; 5 mg/kg
  DYSPNEA INCIDENCE: 60%
  DYSPNEA ONSET: 654 ± 37 s
[4]; 10 mg/kg
  DYSPNEA INCIDENCE: 54%
  DYSPNEA ONSET: 608 ± 65 s

## COc1cccc(OC)c1C(=O)N1CCC(CCN2CCC(C(N)=O)(c3ccccc3)CC2)(c2ccc(Cl)c(Cl)c2)C1 (stereo not drawn) [Example 5]
[3]; [5]
  SRE NUMBER (coughs/gasps): 4.4 ± 1.2
  DYSPNEA INCIDENCE: 66.7%
  DYSPNEA ONSET: 253 ± 47 s
  MAXIMUM PRESSURE INCREASE: 0.7 ± 0.1 mmH2 O
[3]; [6]
  SRE NUMBER (coughs/gasps): 4.9 ± 1.9
  DYSPNEA INCIDENCE: 85.7%
  DYSPNEA ONSET: 384 ± 85 s
  MAXIMUM PRESSURE INCREASE: 0.5 ± 0.1 mmH2 O
[3]
  antagonism of effects of capsaicin aerosol (in words): antagonize the effects of capsaicin aerosol when administered orally
  inhibition of endogenous tachykinins released by capsaicin aerosol (in words): inhibit the endogenous tachykinins released by capsaicin aerosol
